Drawing on US7393869B2, “Methods of using thiazolidine derivatives to treat cancer or inflammation” (QLT Inc., priority 2002, dated 2008), this text covers IC50 and inhibition for two compounds.

One test deals with T1, PTPN12 (Homo sapiens, UniProt Q05209).
T1 construct: The truncated version was used as it was far easier to handle and gave parallel results to the full length protein; made in house; host or cells: bacterial strain ER2566
T1 sequence (Q05209 28-293 limits assumed): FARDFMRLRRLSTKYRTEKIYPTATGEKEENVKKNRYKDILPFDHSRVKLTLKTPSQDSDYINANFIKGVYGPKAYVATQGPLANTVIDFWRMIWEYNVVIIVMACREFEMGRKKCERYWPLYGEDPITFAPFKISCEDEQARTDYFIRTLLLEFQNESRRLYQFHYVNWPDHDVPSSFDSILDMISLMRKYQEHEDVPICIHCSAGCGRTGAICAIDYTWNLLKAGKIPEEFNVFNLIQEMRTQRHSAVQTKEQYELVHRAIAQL
Put plainly: In vitro phosphatase assay (malachite green, phosphate release from ppC SRC 60 peptide). The format is biochemical. As to conditions: read-out: Inhibition of PTPN12 IC50. The text has this:
Expression of human truncated PTPN12 (PTP-PEST-N) as a fusion protein required that the cDNA be ligated into the polyclonal site situated in frame and upstream of the intein gene of the IMPACT™ expression vector pTWIN-II. The truncated version was used as it was far easier to handle and gave parallel results to the full length protein in comparison testing. For the purpose of simplicity, PTP-PEST-N will be used interchangeably with PTPN12 in these Examples.
Active PTPN12 enzyme is expressed from the IMPACT™ vector system in the bacterial strain ER2566. Recombinant PTPN12 protein is purified from bacterial cells using affinity chromatography on chitin-agarose beads followed by a chemical process whereby PTPN12 is released from its affinity tag. A complete quantitative and qualitative analysis of the protein is monitored using Coomassie-Blue staining of SDS-PAGE separated preparations and by PTPN12-specific western blotting. […]
(§1) The enzyme (phosphatase) activity was determined in a reaction that measured phosphate relase from tyrosine phospho-specific peptides using a method first described by Harder et al., Biochem. J. (1994), Vol. 298, pp. 395-401. […]
(§2) The assay plate was incubated at room temperature (21° C.) for 15 minutes. […] The plate was “read” on Bio-tek Instruments EL312e microplate Bio-Kinetics™ Reader at 590 nm and the data collected as per instrument manual.

The target in a further test is T2, PTPN2 (Homo sapiens, UniProt P17706).
T2 construct: made in house; host or cells: bacterial expression system (IMPACT, New England BioLabs)
T2 sequence (P17706 1-415): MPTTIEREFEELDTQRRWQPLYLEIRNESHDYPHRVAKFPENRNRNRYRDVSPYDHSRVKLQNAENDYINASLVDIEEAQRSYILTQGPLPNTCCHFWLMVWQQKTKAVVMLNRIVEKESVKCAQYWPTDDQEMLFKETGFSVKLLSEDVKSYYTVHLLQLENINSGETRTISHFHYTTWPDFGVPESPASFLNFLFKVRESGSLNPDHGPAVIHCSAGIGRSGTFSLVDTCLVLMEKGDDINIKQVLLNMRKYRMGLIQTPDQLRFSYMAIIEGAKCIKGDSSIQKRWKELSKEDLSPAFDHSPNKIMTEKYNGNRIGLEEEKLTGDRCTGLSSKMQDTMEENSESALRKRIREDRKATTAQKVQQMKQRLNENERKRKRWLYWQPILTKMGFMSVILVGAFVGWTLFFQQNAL
Described as above. As to conditions: read-out: Inhibition of PTPN2 IC50. Format: biochemical.
Text: PTPN2 was cloned from a human placental cDNA library in the IMPACT™ (New England BioLabs) bacterial expression system. The technology was first described by Chong et al., Gene (1997), Vol. 192, pp. 271-281. The IMPACT™ Protein Purification System was purchased commercially from New England BioLabs. The resulting product was used in the development of a protein phosphatase assay for high-throughput screening (HTS) of target molecules and in other assays described herein (see Example 2).
This activity was considered to be in the high range as compared to other recombinant protein tyrosine phosphatases assayed. […]
as §1, §2
(§3) The blank and negative controls were read, and blanks were subtracted from the average of negative control values and sample values, and the % inhibition was expressed by the following formula: % Inhibition=100−[corrected sample reading/corrected Negative Control reading*100].

In test [1] the test system is prostate cancer cell line PC3. Put plainly: Cell migration in a Boyden chamber. The format is cell-based. As to conditions: cell line not given. The text has this:
A range of cell lines are used in this assay, particularly the prostate cancer cell line PC3 and PTPN12 mouse embryonic fibroblasts (MEFs). The role of PTPN12 in migration was established based on the observations of PTPN12 negative MEFs. Cell adhesion and migration are dynamic biological activities involving the assembly and disassembly of a large number of extracellular and intracellular molecules, for example, actin, which are regulated in turn by protein phosphorylation. […] Migration is reduced in PTPN12 knock-out MEFs. By extension, a PTPN12 inhibitor should reduce cell migration in a Boyden chamber. Therefore, as a readout for PTPN12 activity, the following assay is designed to analyze cell migration in Boyden chambers. […]
For tumour cell lines, stock cells (ie. PC3 cells) are grown to 50-70% confluency in T175 flasks. […] Fluorescence of migrated cells is read in a Fluoroskan Ascent FL™ (or equivalent) with bottom reading at excitation/emission wavelength of 485/538 nm. Only those cells that have migrated through the pores of the FluoroBlok™ membrane will be read. […]
Data is expressed as fluorescence unit (FU) from the sum of middle 25 areas per 24-well or as percentage of migration inhibition by following formula: % of invasion inhibition=100−FU of compound treated cell invasion/FU of DMSO treated cell invasion times 100. […]

The next test addresses T3, PTPN1 (Homo sapiens, UniProt P18031).
T3 sequence (P18031 1-435): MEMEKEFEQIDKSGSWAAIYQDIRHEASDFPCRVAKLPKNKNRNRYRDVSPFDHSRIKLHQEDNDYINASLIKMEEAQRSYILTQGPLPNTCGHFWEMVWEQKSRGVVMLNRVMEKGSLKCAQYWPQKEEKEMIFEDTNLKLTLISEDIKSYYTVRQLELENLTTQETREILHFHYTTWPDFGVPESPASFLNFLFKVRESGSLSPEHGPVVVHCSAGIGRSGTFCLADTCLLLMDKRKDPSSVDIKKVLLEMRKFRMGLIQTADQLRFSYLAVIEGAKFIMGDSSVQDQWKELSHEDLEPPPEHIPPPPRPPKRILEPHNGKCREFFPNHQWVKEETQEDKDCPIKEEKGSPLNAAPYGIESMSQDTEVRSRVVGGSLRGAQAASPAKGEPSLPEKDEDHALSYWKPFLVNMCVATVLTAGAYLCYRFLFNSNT
Put plainly: In vitro phosphatase assay (malachite green, phosphate release from ppC SRC 60 peptide). The format is biochemical. The conditions noted are these: read-out: Inhibition of PTPN1 IC50. On the procedure:
Compounds of formula (I) and formula (Ia) were tested in the following assay for their ability to inhibit the activity of the desired phosphatase.
The enzyme (phosphatase) activity was determined in a reaction that measured phosphate relase from tyrosine phospho-specific peptides using a method first described by Harder et al., Biochem. J. (1994), Vol. 298, pp. 395-401. This is a non-radioactive method for measuring free phosphate by the malachite green method first described by Van Veldhoven and Mannaerts, Anal Biochem. (1987), Vol. 161, pp. 45-48. 10× assay buffer (250 mM Tris:100 mM, β-mercaptoethanol, 50 mM EDTA; pH 7.2) was diluted to 5× concentration (conc.) with distilled H2O (dH2O). Then 71.4 μM of substrate working stock solution was prepared in dH2O. […]
as §2, §3

For a further test, the system named is PC3 Cells. Put plainly: Cell proliferation (3H-thymidine incorporation). Format: cell-based. As to conditions: Homo sapiens, PC-3. The text has this:
(§4) This procedure (Jelinkova, R. B. et al., “Antiproliferative effect of a lectin- and anti-Thy-1.2 antibody-targeted HPMA copolymer-bound doxorubicin on primary and metastatic human colorectal carcinoma and on human colorectal carcinoma transfected with the mouse Thy-1.2 gene”, Bioconjug. Chem. (2000, September-October), Vol. 11, No. 5, pp. 664-73) is used to assess the effect compounds have on various cell lines with respect to proliferation. The rate of anchorage-independent growth of various tumor cells is quantified by measuring the amount of free isotopic thymidine that has been incorporated into the cells over a period of time. The effect of any compound to inhibit the proliferation of various tumor cells could be used as an indication of its ability to prevent disease progression in cancer.
(§5) Cultured tumour cells are harvested cells as per normal procedures: i.e. trypsinize, centrifuge and count cells. A volume of 90 μL is used to seed 5,000 cells/well in a 96 well plate. Cells are incubated for 24 hours at 37° C. under 5% CO2. After incubation, cells should be 80-90% confluent.
(§6) ^3H-thymidine (Amersham) is diluted in cell culture media to a concentration of 100 μCi/mL. The test compound is diluted in the thymidine broth to 10× the final desired concentration.
(§7) Then 10 μL of diluted compound is added to the 90 μL of cells already present in the 96-well plates. Six replicates wells are done per treatment in columns 2 to 11. Plates were mixed by rocking.
(§8) A known cytotoxic compound such as staurosporine is used in relatively high concentrations as a positive control in column 1. Diluted DMSO is used as a negative control in column 12. The plate is incubated for exactly 24 hours at 37° C.
(§9) After incubation, plates are observed under the microscope for obvious cell death, abnormal cell shape, crystal formation of the compound, etc. Then 25 μL volume of cold 50% TCA is added slowly to the 100 μL volume already in each well, and incubated for 1-2 hours at 4° C. The plates are then washed 5× in tap water and allowed to dry completely (usually overnight) at ambient temperature. Finally, 100 μL of scintillation fluid is added to each well and the plates are counted in a Wallac 1450 Microbeta™ counter according to user manual instructions.
(§10) The amount of inhibition is determined by the following formula: % inhibition=100−[(AVG treatment−AVG positive control)/[…]]
(In general: Dividing cells build labelled thymidine or BrdU into new DNA.)

Another test concerns H460 Cells. Put plainly: Cell proliferation (3H-thymidine incorporation). The format is cell-based. As to conditions: Homo sapiens, NCI-H460.
Text: as §4, §5, §6, §7, §8, §9, §10

The IC50 is the concentration needed to halve the response being measured. Broadly, the inhibition is the drop in the measured response relative to a control, in per cent. The low end stands for a response near the control, the high end for a response far below the control.

Structures are written as SMILES.

Regarding `Cc1ccc(C=C2SC(=S)N(CCC(=O)Nc3ccc(S(N)(=O)=O)cc3)C2=O)cc1` [3-[5-(4-methylbenzylidene)-4-oxo-2-thioxothiazolidin-3-yl]-N-(4-sulfamoylphenyl)-propionamide], the values for the half-inhibitory concentration (IC50) on PTPN12, on PTPN2 and at PTPN1 were 1.5 µM, 1.6 µM and 3 µM, respectively. This compound also showed an inhibition at 25 µM in test [1] of 55%. The inhibition at 50 µM with PC3 Cells is 35%; in the test with H460 Cells, 45%.
`Cc1ccc(C=C2SC(=S)N(CCC(=O)Nc3ccc(S(=O)(=O)Nc4nccs4)cc3)C2=O)cc1` [3-[5-(4-methylbenzylidene)-4-oxo-2-thioxothiazolidin-3-yl]-N-[4-(thiazol-2-ylsulfamoyl)-phenyl]-propionamide]: the IC50 came out at 1.1 µM at PTPN12, 0.95 µM at PTPN2 and 1.5 µM on PTPN1. This compound also gave an inhibition at 25 µM in test [1] of 87%. Also, the inhibition at 50 µM in the test with PC3 Cells amounted to 47%; in the test with H460 Cells, 43%.
